Measured values: PMC6404402, “Design of indole- and MCR-based macrocycles as p53-MDM2 antagonists” (Beilstein Journal of Organic Chemistry, 2019)
“And” between values parts separate entries of the source, which are not always exact repeats. Identical values can stand only once. Values belong to the compound of their own block, whether it stands above or below them.

Experiments:
[1] = Ugi macrocyclisation (intramolecular U-4C-3CR type): alpha,omega-amino acid + indole-3-carboxaldehyde (imine formation, MW 120 °C, 1 h), then tert-butyl isocyanide (MW 120 °C, 1 h); ring bond formed = amide between carboxyl C and amine N (via Mumm acyl transfer); conditions: the molecule shown is the open-chain precursor, MeOH, 100.0 mM, 2.0 h
[2] = target: 15N-labeled MDM2 (N-terminal domain of human MDM2, residues 1-118) (Homo sapiens, UniProt Q00987); assay: 1H,15N HSQC NMR titration of 15N-labeled MDM2; assay type: binding; conditions: 1H,15N HSQC titration, 7–9 ligand/protein ratios 0 to 5; 0.20–0.35 mM 15N MDM2; 50 mM phosphate pH 7.4, 150 mM NaCl, 5 mM DTT, 10% D2O; 300K; 50 mM ligand stock in DMSO; weighted mean of KD's of most perturbed residues in fast chemical exchange
15N-labeled MDM2 (N-terminal domain of human MDM2, residues 1-118), sequence (Q00987 1-118): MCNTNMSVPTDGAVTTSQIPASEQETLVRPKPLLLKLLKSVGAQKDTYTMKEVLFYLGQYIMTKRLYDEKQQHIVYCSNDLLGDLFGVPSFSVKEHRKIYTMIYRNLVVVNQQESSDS
Experimental: Protein expression and purification
Fragment of the N-terminal domain of human MDM2 (residues 1-118) was cloned into the pET-20 (Novagen) and expressed in E. coli strain BL21-CodonPlus(DE3)-RIL as described previously.1 In brief, cells were cultured at 37 °C. Protein expression was induced with 1 mM IPTG at OD600 of 0.8 and cultured for additional 5 h at 37 °C. Cells were collected by centrifugation and lysed by sonication. Inclusion bodies were collected by centrifugation, washed with PBS containing 0.05% Triton-X100 and subsequently solubilized in 6 M guanidine hydrochloride in 100 mM Tris-HCl, pH 8.0, containing 1 mM EDTA and 10 mM β-mercaptoethanol. The protein was dialyzed against 4 M guanidine hydrochloride pH 3.5 supplemented with 10 mM β-mercaptoethanol. Following, the protein was refolded by dropwise addition into 10 mM Tris-HCl, pH 7.0, containing 1 mM EDTA and 10 mM β-mercaptoethanol and slow mixing overnight at 4 °C. Ammonium sulfate was added to the final concentration of 1.5 M and the refolded protein was recovered on Butyl Sepharose 4 Fast Flow (GE Healthcare). […]
Uniform 15N isotope labeling was achieved by expression of the protein in the M9 minimal media containing 15NH4Cl as the sole nitrogen source. […] Water suppression was carried out using the WATERGATE sequence.2 All the spectra were recorded at 300K using a Bruker Avance 600 MHz spectrometer with the Cryo-Platform.

SMILES: O=C(O)COCC(=O)NCCCCCCCCN=Cc1c[nH]c2cc(Cl)ccc12 [2h]
ring closure, isolated yield ([1]; 15-membered ring): 25%

SMILES: O=C(O)COCC(=O)NCCCCCCCCCCN=Cc1c[nH]c2ccccc12 [2e]
ring closure, isolated yield ([1]; 17-membered ring): 31%

SMILES: O=C(O)CSCC(=O)NCCCCCCCCN=Cc1c[nH]c2cc(Cl)ccc12 [2n]
ring closure, isolated yield ([1]; 15-membered ring): 39%

SMILES: O=C(O)COCC(=O)NCCCCCCN=Cc1c[nH]c2cc(Cl)ccc12 [2g]
ring closure, isolated yield ([1]; 13-membered ring): 35%

SMILES: O=C(O)COCC(=O)NCCCCCCCCCCCCN=Cc1c[nH]c2ccccc12 [2f]
ring closure, isolated yield ([1]; 19-membered ring): 59%

SMILES: O=C(O)CSCC(=O)NCCCCCN=Cc1c[nH]c2cc(Cl)ccc12 [2l]
ring closure, isolated yield ([1]; 12-membered ring): 35%

Kd [2]: 9 µM and 8.9 µM
SMILES: CC(C)(C)NC(=O)C(c1c[nH]c2cc(Cl)ccc12)N1CCCCCCNC(=O)COCC1=O (centres unmarked) [2g]

SMILES: O=C(O)COCC(=O)NCCCCCCN=Cc1c[nH]c2ccccc12
ring closure, isolated yield ([1]; 13-membered ring): 51%

SMILES: O=C(O)COCC(=O)NCCCCCN=Cc1c[nH]c2ccccc12 [2b]
ring closure, isolated yield ([1]; 12-membered ring): 35%

SMILES: O=C(O)COCC(=O)NCCCCCCCCN=Cc1c[nH]c2ccccc12 [2d]
ring closure, isolated yield ([1]; 15-membered ring): 33%

SMILES: O=C(O)COCC(=O)NCCCCCCCCCCN=Cc1c[nH]c2cc(Cl)ccc12 [2i]
ring closure, isolated yield ([1]; 17-membered ring): 51%

SMILES: O=C(O)COCC(=O)NCCCCN=Cc1c[nH]c2ccccc12 [2a]
ring closure, isolated yield ([1]; 11-membered ring): 40%

SMILES: O=C(O)CSCC(=O)NCCCCN=Cc1c[nH]c2cc(Cl)ccc12 [2k]
ring closure, isolated yield ([1]; 11-membered ring): 29%

SMILES: O=C(O)CSCC(=O)NCCCCCCN=Cc1c[nH]c2cc(Cl)ccc12 [2m]
ring closure, isolated yield ([1]; 13-membered ring): 39%

SMILES: O=C(O)CSCC(=O)NCCCCCCCCCCN=Cc1c[nH]c2cc(Cl)ccc12 [2o]
ring closure, isolated yield ([1]; 17-membered ring): 41%

SMILES: O=C(O)CSCC(=O)NCCCCCCCCCCCCN=Cc1c[nH]c2cc(Cl)ccc12 [2p]
ring closure, isolated yield ([1]; 19-membered ring): 52%

SMILES: O=C(O)COCC(=O)NCCCCCCCCCCCCN=Cc1c[nH]c2cc(Cl)ccc12 [2j]
ring closure, isolated yield ([1]; 19-membered ring): 60%
